According to ChEMBL document CHEMBL1201862, “PubChem BioAssay data set” (2004):
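Dose response: 5 concentrations. Exposure: 48 h. Format: 96-well plates. Endpoint: linear interpolation; highest concentration if not reached. The concentration for 50% growth inhibition is given as GI50.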 Calls of active or inactive are those of the source. Rule as the data show it: active = GI50 up to about 1.1 µM and inactive = higher.

Legend:
Assay in all cases: inhibition of tumour cell growth, NCI panel, 48 h
[1] = system: LOX IMVI
[2] = system: U-251
[3] = system: SW-620
[4] = system: DU-145
[5] = system: BT-549
[6] = system: SK-OV-3
[7] = system: HOP-62
[8] = system: OVCAR-8
[9] = system: MDA-MB-435
[10] = system: MDA-MB-231
[11] = system: NCI-H226
[12] = system: HCC 2998
[13] = system: NCI-H522
[14] = system: A549
[15] = system: IGROV-1
[16] = system: UACC-62
[17] = system: M14
[18] = system: UACC-257
[19] = system: SNB-19
[20] = system: Malme-3M

Measured: GI50

O=C(NC(=O)c1cc(-c2ccccc2)n[nH]1)c1ccccc1
inactive: [1] > 100 µM | [2] > 100 µM | [3] > 100 µM | [4] > 100 µM | [5] > 100 µM | [6] > 100 µM | [7] 64.9 µM | [8] > 100 µM | [9] > 100 µM | [10] > 100 µM | [11] > 100 µM | [12] > 100 µM | [13] 70.8 µM | [14] > 100 µM | [15] > 100 µM | [16] > 100 µM | [17] > 100 µM | [18] > 100 µM

O=C(CN1CCNCCN(CC(=O)N2CCCCC2)CCNCC1)N1CCCCC1
inactive: [1] > 100 µM | [2] 93.1 µM | [3] 58.2 µM | [4] > 100 µM | [5] > 100 µM | [6] > 100 µM | [19] > 100 µM | [7] > 100 µM | [8] > 100 µM | [9] > 100 µM | [20] > 100 µM | [10] > 100 µM | [11] > 100 µM | [13] 40.6 µM | [14] 50.8 µM | [15] 33.5 µM | [16] > 100 µM | [17] > 100 µM | [18] > 100 µM

N#CC1(C#N)C2CCCCC23OC(=N)C1(C#N)C(c1ccco1)O3 (centres undefined)
inactive: [1] 17.2 µM | [2] > 10 µM | [3] 7.76 µM | [4] 25.9 µM | [5] 15.6 µM | [6] > 100 µM | [19] 31.6 µM | [8] 23.2 µM | [9] 19.8 µM | [20] 23.7 µM | [10] 16.7 µM | [11] > 100 µM | [12] 15.1 µM | [14] > 100 µM | [15] 18.3 µM | [16] 16.6 µM | [17] 20.4 µM | [18] 17.7 µM

CO[C@@H]1C[C@H]2[C@@H]3CC[C@H]([C@@H](C)COC(C)=O)[C@@]3(C)CC[C@@H]2[C@@]2(C)CC[C@H]3C[C@]312
inactive: [1] 11.4 µM | [2] 13.1 µM | [3] 11.8 µM | [4] 14 µM | [5] 14.2 µM | [19] 16.9 µM | [7] 17.7 µM | [8] 12.2 µM | [9] 15.1 µM | [20] 16 µM | [10] 11.9 µM | [11] 17.9 µM | [12] 15.1 µM | [13] 16.2 µM | [14] 15.9 µM | [15] 15.5 µM | [17] 16.9 µM | [18] 11.6 µM

CC(=O)Nc1ccc(Cc2ccc3nc(O)cc(C)c3c2)cc1
inactive: [1] > 100 µM | [2] 30.1 µM | [3] > 100 µM | [4] 32.5 µM | [5] > 100 µM | [6] 87.3 µM | [19] 63.5 µM | [7] 33.8 µM | [8] > 100 µM | [9] > 100 µM | [20] 87.7 µM | [10] 28.8 µM | [11] > 100 µM | [13] 48.8 µM | [14] > 100 µM | [15] 61.2 µM | [16] 31 µM | [17] > 100 µM | [18] 67 µM

C[C@]12CC[C@@H]3c4ccc(O)cc4CC[C@H]3[C@@H]1C/C(=C\c1ccncc1)[C@@H]2O
inactive: [2] 11.8 µM | [3] 9.27 µM | [4] 19.1 µM | [5] 3.86 µM | [6] 26.2 µM | [19] 23.4 µM | [7] 14.8 µM | [8] 11.4 µM | [9] 2.92 µM | [20] 5.04 µM | [10] 10.1 µM | [11] 10.7 µM | [12] 7.96 µM | [13] 3.73 µM | [14] 7.36 µM | [15] 7.43 µM | [16] 10.8 µM | [17] 20.6 µM | [18] 14.5 µM

CC(C)(C)OC(=O)NCCC1CN(C(=O)c2ccccc2)c2ccccc21 (centres undefined)
inactive: [2] 40 µM | [3] 34.2 µM | [4] 45.8 µM | [5] 25.1 µM | [6] > 100 µM | [19] 32 µM | [7] 25.8 µM | [8] 25.6 µM | [9] 27.6 µM | [20] 28.9 µM | [10] 40.1 µM | [12] 73.1 µM | [13] 22.6 µM | [14] 25.3 µM | [15] 29.5 µM | [16] 19 µM | [17] 16.7 µM | [18] 26.9 µM
